Results: patent publication US20260250318A1, “COMPOSITIONS AND METHODS FOR CROSSING THE BLOOD BRAIN BARRIER” (VOYAGER THERAPEUTICS, INC., priority 2022, published 2026)

Tested on: brains, heart, liver, muscle, and DRG of the NHPs
Experiment: Maturation of TTM-001 and TTM-002 capsids, NGS enrichment in NHP tissues
Type: in vivo
Source text: This Example describes maturation of the AAV9 capsid variants, TTM-001 (SEQ ID NO: 981 (amino acid) and 983 (DNA), comprising SEQ ID NO: 941 (encoded by SEQ ID NO: 942)) and TTM-002 (SEQ ID NO: 982 (amino acid) and 984 (DNA), comprising SEQ ID NO: […] (encoded by SEQ ID NO: 944)) in NHPs to further enhance their transduction and biodistribution in the central nervous system as well as other tissues, and evolve the AAV capsid variants to provide further cross-species compatibility. Two approaches were used to mature the TTM-001 and TTM-002 capsid sequences in order to randomize and mutate within and around the peptide insert comprised within loop IV of the capsid variant. […] In the first maturation approach, sets of three contiguous amino acids were randomized across the mutagenesis region in the TTM-001 and TTM-002 sequences, which spanned from position 450 to position 466, numbered according to SEQ ID NO: 981 and 982. In the second maturation approach, mutagenic primers were used to introduce point mutations at a low frequency, scattered across the mutagenesis region in the TTM-001 and TTM-002 sequences ranging from position 449 to position 466, numbered according to SEQ ID NO: 981 and 982. AAV capsid variants arising from each maturation approach for TTM-001 and TTM-002 were pooled together, for subsequent testing and characterization in NHPs.
The library of pooled matured AAV capsid variants generated using the first maturation approach and the second maturation approach for the TTM-001 and TTM-002 AAV capsid variants were injected into two NHPs. […] Following RNA recovery and RT-PCR amplification, a systematic NGS enrichment analysis was performed to calculate the fold enrichment ratio relative to an AAV9 control, and the peptides comprised within the variants were identified.
Following the RNA recovery and NGS analysis from the second maturation approach, approximately 680,000 capsid variants were identified. The 680,000 matured capsid variants were then filtered based on samples with a raw virus count greater than 10 and a coefficient of variance (CV) of less than 1, which was calculated for each peptide across the brain samples taken from the two NHPs. […] Using this filtering criteria, this led to approximately 64,000 matured capsid variants.

[1] = NHP DRG, NGS, relative to AAV9 control
[2] = NHP brain, NGS, relative to AAV9 control
[3] = NHP heart, NGS, relative to AAV9 control
[4] = NHP liver DNA, NGS, relative to AAV9 control
[5] = NHP liver RNA, NGS, TTM-001 and TTM-002 matured AAV capsid variants, relative to AAV9 control
[6] = NHP muscle, NGS, relative to AAV9 control
[7] = NGS fold-enrichment, DRG, NHP, relative to AAV9
[8] = NGS fold-enrichment, brain, NHP, relative to AAV9
[9] = NGS fold-enrichment, heart, NHP, relative to AAV9
[10] = NGS fold-enrichment, liver DNA, NHP, relative to AAV9
[11] = NGS fold-enrichment, liver RNA, NHP, relative to AAV9
[12] = NGS fold-enrichment, muscle, NHP, relative to AAV9

| Sequence | Fold Enrichment relative to AAV9, DRG (NHP) [1] [fold] | Fold Enrichment relative to AAV9, Brain (NHP) [2] [fold] | Fold Enrichment relative to AAV9, Heart (NHP) [3] [fold] | Fold Enrichment relative to AAV9, Liver DNA (NHP) [4] [fold] | Fold Enrichment relative to AAV9, Liver RNA (NHP) [5] [fold] | Fold Enrichment relative to AAV9, Muscle (NHP) [6] [fold] | Fold Enrichment relative to AAV9, DRG (NHP) [7] [fold] | Fold Enrichment relative to AAV9, Brain (NHP) [8] [fold] | Fold Enrichment relative to AAV9, Heart (NHP) [9] [fold] | Fold Enrichment relative to AAV9, Liver DNA (NHP) [10] [fold] | Fold Enrichment relative to AAV9, Liver RNA (NHP) [11] [fold] | Fold Enrichment relative to AAV9, Muscle (NHP) [12] [fold] |
| --- | --- | --- | --- | --- | --- | --- | --- | --- | --- | --- | --- | --- |
| KTINGSGSPHSKLPKQQT | 0.000 | 0.000 | 0.000 | 0.274 | 11.856 | 0.000 | – | – | – | – | – | – |
| KTINGSGSPHYRYQNQQT | 0.000 | 0.000 | 0.000 | 1.027 | 14.107 | 0.000 | – | – | – | – | – | – |
| KTINGSSSPHWMAQNQQT (peptide inserted in AAV capsid) | 0.000 | 0.000 | 0.000 | 2.390 | 16.635 | 0.000 | – | – | – | – | – | – |
| KYSAGSGSPHSKAQNQQT (peptide inserted in AAV capsid) | 0.000 | 0.000 | 0.000 | 1.824 | 41.310 | 0.000 | – | – | – | – | – | – |
| KTINGSGSPHSKAQSAKT | 0.000 | 0.000 | 0.000 | 4.200 | 11.162 | 0.000 | – | – | – | – | – | – |
| KTINGSGSPHWVPQNQQT | 0.000 | 0.000 | 0.000 | 3.219 | 22.907 | 0.000 | – | – | – | – | – | – |
| KTINGSGSPHCALQNQQT | 0.000 | 0.000 | 0.000 | 3.867 | 11.404 | 0.000 | – | – | – | – | – | – |
| KYYTGSGSPHSKAQNQQT (peptide inserted in AAV capsid) | 0.000 | 0.000 | 0.000 | 1.199 | 38.777 | 0.000 | – | – | – | – | – | – |
| KTISGHDSPHISGQYQQT | 0.000 | 0.000 | 0.074 | 0.420 | 12.395 | 1214.588 | – | – | – | – | – | – |
| KTINGLDSPHRSRQNQQT | 0.000 | 0.000 | 0.000 | 0.321 | 26.403 | 0.000 | – | – | – | – | – | – |
| KTINGSGSPHSKALRHQT | – | – | – | – | – | – | 0.000 | 0.000 | 0.000 | 4.532 | 10.774 | 0.000 |
| KYSMGSGSPHSKAQNQQT (peptide inserted in AAV capsid) | – | – | – | – | – | – | 0.000 | 0.000 | 0.000 | 1.587 | 10.478 | 0.000 |
| KTINGSGSPHSLCLNQQT | 0.000 | 0.000 | 0.000 | 1.790 | 17.028 | 0.000 | – | – | – | – | – | – |
| KTINGSGSPHSKAQKCIT | 0.000 | 0.000 | 0.000 | 1.887 | 69.547 | 0.000 | – | – | – | – | – | – |
| KTINWSRSPHSKAQNQQT | 0.000 | 0.000 | 0.000 | 5.624 | 14.399 | 0.000 | – | – | – | – | – | – |
| KTINGSGSPHPSCQNQQT | 0.000 | 0.000 | 0.000 | 2.790 | 27.796 | 0.000 | – | – | – | – | – | – |
| KPRWGSGSPHSKAQNQQT | 0.000 | 0.000 | 375.537 | 0.386 | 51.637 | 0.000 | – | – | – | – | – | – |
